# Assay results from the NIST ThermoML archive (doi:10.1016/j.fluid.2016.01.023).
# ± gives the expanded uncertainty stated by the source.
# Assay: mn = molality of the nth substance listed, in mol/kg
# Conditions: 303.15 K, 101 kPa, Liquid, Vibrating tube method
SMILES,mass density (m1 = 0.01),mass density (m1 = 0.043),mass density (m1 = 0.1),mass density (m1 = 0.417),mass density (m1 = 0.896),mass density (m1 = 1.454),mass density (m1 = 0.053),mass density (m1 = 0.101),mass density (m1 = 0.5),mass density (m1 = 1.002),mass density (m1 = 1.502),mass density (m1 = 1.001),mass density (m1 = 1.501)
N[C@@H](CCC(=O)[O-])C(=O)O.[Na+] [sodium (S)-2-amino-4-carboxybutanoate] + O,996.19 ± 0.84 kg/m3,999.15 ± 0.84 kg/m3,1004.02 ± 0.84 kg/m3,1030.44 ± 0.84 kg/m3,1066.63 ± 0.85 kg/m3,1104.02 ± 0.85 kg/m3,–,–,–,–,–,–,–
CC(=O)C(=O)[O-].[Na+] [sodium pyruvate] + O,995.66 ± 0.84 kg/m3,–,–,–,–,–,997.57 ± 0.84 kg/m3,1000.51 ± 0.84 kg/m3,1018.19 ± 0.84 kg/m3,1041.67 ± 0.84 kg/m3,1065.87 ± 0.84 kg/m3,–,–
O=C([O-])CCC(=O)C(=O)[O-].[Na+].[Na+] [disodium 2-oxo-glutarate] + O,996.13 ± 0.84 kg/m3,–,–,–,–,–,–,1007.45 ± 0.85 kg/m3,1042.49 ± 0.85 kg/m3,–,–,1093.14 ± 0.85 kg/m3,1147.45 ± 0.86 kg/m3
